Residues, ends and D or L forms follow the SMILES beside them.
Assay: Absorption experiment of NLPL in rats (blood LC-MS/MS)
Format: in vivo
Settings: SD rats, intragastric 50 mg/kg bw
Description: In this research, SD rats are used and divided into three groups: a normal group and sturgeon NLPL (SEQ ID NO: 9) groups (50 mg/kg bw of daily dosage). At 12 h before the experiment, the rats are fasted but allowed to drink water. At 15 min, 45 min, 90 min, 180 min and 360 min after intragastric administration, all rats are anesthetized with 3% pentobarbital sodium, subjected to blood sampling through the abdominal aorta, and then euthanized. The polypeptide samples are prepared by solid phase synthesis and desalted.
• (1) The required samples are taken out, thawed, and mixed uniformly by vortex. • (2) 40 μL of sample is taken from the mixed sample, added with 120 μL of methanol, then shaken for 10 min, and centrifuged at low temperature for 10 min. • (3) 70 μL of supernatant is taken out from the centrifuged sample for subsequent determination. 4.2.2.2 Preparation of Standard Solution
Chromatographic separation is performed by using Waters ACQUITY UPLC I-CLASS ultra-high performance liquid chromatography equipment. Specific conditions are as follows: chromatographic column: Waters UPLC HSS T3 (1.8 μm, 2.1 mm×100 mm)—mobile phase: phase A (water, 0.1% formic acid), phase B (methanol)—flow rate: 0.3 mL/min-injection volume: 5.0 μL-column temperature: 40° C.—single sample analysis time: 8 min.
Mass spectrometric detection is performed by using Waters XEVO TQ-XS series four-pole mass spectrometer. Specific conditions are as follows: positive ion source voltage: 3.0 kV-cone well voltage: 30 V-solvent removal temperature: 500° C.—solvent removal gas flow rate: 1000 L/h-cone well gas flow rate: 150 L/h.
Data are expressed in the form of Mean±SD. Data processing and significance analysis are performed by Graphpad. P<0.05 and P<0.01 indicate significant difference and extremely significant difference in data. The target peak area in the polypeptide metabolism data is calculated by using TargetLynx software, and an allowable error of retention time is 15 s. The calculation of concentration is based on a standard curve method to obtain quantitative results.

time at which NLPL content in the blood reaches a maximum: ≤ 45 min
AUC (rat, blood, po, during the measurement time (to 360 min)): 7.14 ng·h/mL
Cmax (rat, blood, po, read-out: maximum NLPL content in the blood): 1.65 ± 1.75 ng/mL
SMILES: CC(C)C[C@H](NC(=O)[C@@H]1CCCN1C(=O)[C@H](CC(C)C)NC(=O)[C@@H](N)CC(N)=O)C(=O)O [NLPL] (H-NLPL-OH; N-terminus and C-terminus assumed)
